Reference: the NIST ThermoML archive (doi:10.1021/je900550v)
Numbers after ± are expanded uncertainties.

Assay: refractive index (Na D-line) (dimensionless)
Conditions: 101.33 kPa, Liquid, Standard Abbe refractometry

CCCCC(=O)[O-].C[NH2+]CCO [2-hydroxy-N-methylethanaminium pentanoate]
Conditions	refractive index
288.15 K	1.4568 ± 0.0005
293.12 K	1.4554 ± 0.0005
298.19 K	1.4538 ± 0.0005
303.15 K	1.4524 ± 0.0005
308.18 K	1.4508 ± 0.0005
313.25 K	1.4492 ± 0.0005
318.15 K	1.4474 ± 0.0005
323.18 K	1.4461 ± 0.0005

C[NH2+]CCO.O=C[O-] [2-hydroxy-N-methylethanaminium formate]
Conditions	refractive index
288.35 K	1.4485 ± 0.0005
293.15 K	1.447 ± 0.0005
298.35 K	1.4458 ± 0.0005
303.15 K	1.4446 ± 0.0005
308.23 K	1.4429 ± 0.0005
313.1 K	1.4418 ± 0.0005
318.15 K	1.4406 ± 0.0005
322.85 K	1.4396 ± 0.0005

CC(=O)[O-].C[NH2+]CCO [N-methyl-2-hydroxyethylammonium acetate]
Conditions	refractive index
288.25 K	1.4518 ± 0.0005
293.23 K	1.4506 ± 0.0005
298.15 K	1.4494 ± 0.0005
303.13 K	1.4483 ± 0.0005
308.13 K	1.447 ± 0.0005
313.05 K	1.4457 ± 0.0005
318.13 K	1.4445 ± 0.0005
323.1 K	1.4433 ± 0.0005

CCC(=O)[O-].C[NH2+]CCO [2-hydroxy-N-methylethanaminium propionate]
Conditions	refractive index
288.15 K	1.4561 ± 0.0005
293.2 K	1.4548 ± 0.0005
298.2 K	1.4534 ± 0.0005
303.15 K	1.452 ± 0.0005
308.15 K	1.4507 ± 0.0005
313.18 K	1.4492 ± 0.0005
318.15 K	1.4478 ± 0.0005
323.15 K	1.4464 ± 0.0005

CC(C)C(=O)[O-].C[NH2+]CCO [2-hydroxy-N-methylethanaminium isobutyrate]
Conditions	refractive index
288.11 K	1.4539 ± 0.0005
293.15 K	1.4525 ± 0.0005
298.05 K	1.4511 ± 0.0005
303.05 K	1.4496 ± 0.0005
308.05 K	1.4481 ± 0.0005
313.05 K	1.4463 ± 0.0005
318.08 K	1.4448 ± 0.0005
323.15 K	1.4433 ± 0.0005

CCCC(=O)[O-].C[NH2+]CCO [N-methyl-2-hydroxyethylammonium butanoate]
Conditions	refractive index
288.15 K	1.4579 ± 0.0005
293.15 K	1.4564 ± 0.0005
298.15 K	1.4549 ± 0.0005
303.15 K	1.4534 ± 0.0005
308.15 K	1.452 ± 0.0005
313.15 K	1.4504 ± 0.0005
318.15 K	1.4488 ± 0.0005
323.15 K	1.4471 ± 0.0005
